According to ChEMBL document CHEMBL1201862, “PubChem BioAssay data set” (2004):
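In this assay, cells in 96-well plates receive the compound at five concentrations for 48 hours. Endpoints are linearly interpolated between the surrounding concentrations. GI50 = concentration required for 50% inhibition of growth.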 The source made the active and inactive calls. No stated cut-off is given here; in the data, active = GI50 up to about 1.1 µM and inactive = higher.

What was measured:
Assay in all cases: DTP human tumour cell line panel, 48 h
HL-60 = test system: HL-60
DU-145 = test system: DU-145
BT-549 = test system: BT-549
SR = test system: SR
SNB-75 = test system: SNB-75
NCI-H460 = test system: NCI-H460
NCI-H522 = test system: NCI-H522
T47D = test system: T47D
HT-29 = test system: HT-29
COLO 205 = test system: COLO 205
KM12 = test system: KM12
HOP-62 = test system: HOP-62
LOX IMVI = test system: LOX IMVI
CAKI-1 = test system: CAKI-1
M14 = test system: M14
PC-3 = test system: PC-3
RXF 393 = test system: RXF 393
MDA-MB-231 = test system: MDA-MB-231
RPMI-8226 = test system: RPMI-8226

Measured: GI50

CC(C)(C)c1cc2c(OC/C=C/c3ccccc3)c(c1)Cc1cc(C(C#N)(OC/C=C/c3ccccc3)OC/C=C/c3ccccc3)cc(c1OC/C=C\c1ccccc1)Cc1cc(C(C)(C)C)cc(c1OC/C=C/c1ccccc1)Cc1cc(C(C#N)(OC/C=C\c3ccccc3)OC/C=C/c3ccccc3)cc(c1OC/C=C\c1ccccc1)C2 (stereo not drawn)
inactive: HL-60 > 100 µM | DU-145 > 100 µM | BT-549 > 100 µM | SR 20.7 µM | SNB-75 > 100 µM | NCI-H460 > 100 µM | NCI-H522 > 100 µM | T47D > 100 µM | HT-29 > 100 µM | COLO 205 > 100 µM | KM12 > 100 µM | HOP-62 > 100 µM | LOX IMVI 30.1 µM | CAKI-1 > 100 µM | M14 36.6 µM | PC-3 > 100 µM | RXF 393 > 100 µM | MDA-MB-231 30.4 µM | RPMI-8226 > 100 µM

O=C1/C(=C\c2cccs2)Oc2ccccc21
inactive: HL-60 49.8 µM | DU-145 50.9 µM | BT-549 41.2 µM | SR > 100 µM | SNB-75 55.7 µM | NCI-H460 53.1 µM | NCI-H522 39.8 µM | T47D 2.99 µM | HT-29 63.7 µM | COLO 205 75.3 µM | KM12 59.4 µM | HOP-62 39.9 µM | LOX IMVI 51.3 µM | CAKI-1 33.6 µM | M14 84.5 µM | PC-3 43.2 µM | RXF 393 65.8 µM | MDA-MB-231 71.1 µM | RPMI-8226 69.5 µM

Cc1nc(-c2cc3c(ccc4ccccc43)oc2=O)cs1
inactive: HL-60 > 100 µM | DU-145 > 100 µM | BT-549 23.7 µM | SR > 100 µM | SNB-75 36.6 µM | NCI-H460 91.8 µM | NCI-H522 35.2 µM | T47D > 100 µM | HT-29 > 100 µM | COLO 205 > 100 µM | KM12 > 100 µM | HOP-62 35.7 µM | LOX IMVI > 100 µM | CAKI-1 > 100 µM | M14 83.9 µM | PC-3 70.8 µM | RXF 393 35.8 µM | MDA-MB-231 70.5 µM | RPMI-8226 > 100 µM

COc1cccc(NCC(=O)Nn2c(-c3ccccc3)nc3ccccc3c2=O)c1
inactive: HL-60 > 100 µM | DU-145 > 100 µM | BT-549 > 100 µM | SR > 100 µM | SNB-75 > 100 µM | NCI-H460 > 100 µM | NCI-H522 > 100 µM | T47D > 100 µM | HT-29 > 100 µM | COLO 205 > 100 µM | KM12 > 100 µM | HOP-62 > 100 µM | LOX IMVI > 100 µM | M14 > 100 µM | PC-3 > 100 µM | RXF 393 > 100 µM | MDA-MB-231 > 100 µM | RPMI-8226 > 100 µM

CCOC(=O)C1(O)C(=O)C2=C3C(=O)OC(C4OC(=O)c5c(c(O)c(O)c(O)c5C31)-c1c(cc(O)c(O)c1O)C(=O)OC1COC(=O)c3cc(O)c(O)c(O)c3-c3c(cc(O)c(O)c3O)C(=O)OC14)[C@@H]2O (stereo partly drawn)
inactive: HL-60 19.1 µM | DU-145 31 µM | BT-549 18.8 µM | SR 30.8 µM | NCI-H460 29.3 µM | NCI-H522 21 µM | T47D 24.8 µM | HT-29 18.5 µM | COLO 205 15.7 µM | KM12 33.7 µM | HOP-62 36.5 µM | LOX IMVI 15.8 µM | CAKI-1 13 µM | M14 21.8 µM | PC-3 46 µM | RXF 393 17.5 µM | MDA-MB-231 15.2 µM | RPMI-8226 28.5 µM
